Experimental findings from patent US8476005B2, “Microfluidic embedded polymer NEMS force sensors” (California Institute of Technology, priority 2008, dated 2013) are described below.

In test [1] the test system is individual fibroblasts (NIG-3T3). The test can be described thus: Single-cell force response to a perturbing agent, measured with polymer NEMS force sensor. The class given is cell-based. As to the method:
FIGS. 2a-2i illustrate NEMS-enabled single-cell force measurements with high temporal and force resolution. FIGS. 2a-2b provide optical images showing a microfluidics encapsulated force sensor, and FIG. 2c provides an electron micrograph thereof. […] The force data was acquired with a force resolution of 200 pN and a time resolution of 100 ms—25× and 300×, respectively, better than prior state of the art. FIGS. 2f-2h provide plots that show force signatures of two molecular-mechanical processes: small force oscillations, roughly 400 pN peak-to-peak, with a frequency that is monotonically dependent on the force being exerted by the lamellipodium shown in FIG. 2f, with FIG. 2g illustrating the linearity of frequency dependence.
NEMS force sensors can be used in phenotypic screening. […] Cells can then be exposed to one or more potential reagents, such as a pharmaceutical reagent, such as a drug, introduced in a carefully controlled manner using the integrated microfluidics, and the effects of the reagent(s) on the cells, such as the force exerted by the cells, is monitored. […]
The reagent can cause the cell to change in its physiology, such as conformation and/or structure, or change its force response to the reagent. […] The lengthening of the wire can then be detected. […]

The test system of the next test is cells. The test can be described thus: Surface chemistry Petri dish experiments: cell adherence and spreading on treated surface. Format: cell-based. The note with it: surface treated with this agent only; polymer surface with gold pads. The protocol:
FIGS. 3a-3d show results from surface chemistry Petri dish experiments. […] FIG. 3c-3d show results from complete surface chemistry process (SAM, Pluronics and fibronectin): cells are well spread on the gold and absent from the polymer A force sensor comprising a polymer surface with gold pads was used. The cells were to be attached to the pads and not to the polymer. At the beginning, both the pad and the polymer surfaces were hydrophobic, and water contact angle was about 80° on both. A self assembled monolayer was applied to the gold pads using thiol based chemistry. […] Monolayers were deposited from ethanol solutions […]. The monolayers left the gold surface hydrophilic, and water contact angle was about 25°. The polymer regions were coated with Pluronics […]). The surfaces were treated to Pluronics diluted in PBS (phosphate buffer solution), 0.02% to 1% by weight for 20-80 min. […] Pluronics left the surface hydrophilic. The gold regions were coated with Fibronectin. The surfaces were treated with fibronectin diluted in PBS, 5 ug/mL to 50 ug/mL for 20 min-4 hrs. […] FIGS. 3(c) and 3(d) show results from complete surface chemistry process (SAM, Pluronics and fibronectin), wherein cells were well spread on the gold and absent from the polymer. Thus, modifying surface chemistry allowed control of the cell adherence and/or spreading.

As for `C=C1[C@@H](C)[C@H]2[C@H](Cc3ccccc3)NC(=O)[C@]23[C@H](OC(C)=O)/C=C/[C@@](C)(O)C(=O)[C@@H](C)C/C=C/[C@H]3[C@@H]1O` [cytochalasin D, Cytochalasin D], the “large, stable, quantized force steps” value in test [1] (cell's cytoskeleton perturbed with cytochalasin D and allowed to recover in growth media) is listed as ~1 nN. For the same compound, the “small force oscillations, peak-to-peak” value in test [1] (lamellipodium perturbed with cytochalasin D and recovering in growth media, frequency monotonically dependent on force exerted) is reported as “roughly 400 pN”.

For fibronectin, the “cell attachment and spreading on surface” value with cells is on record as “cells were spread everywhere”.
